dTM, % of control and % of inhibition data for seven compounds are collected here from ChEMBL document CHEMBL5465560, “Selectivity Literature for EUbOPEN Chemogenomic Library” (2024).

The target of assay [1] is Casein kinase II subunit alpha (Homo sapiens, UniProt P68400). Description: Selectivity interaction (Kinase panel (DSF assay)) EUB0001558a CSNK2A1. (In general: DSF heats the sample and reads unfolding from a dye or from intrinsic fluorescence.)
The target of assay [2] is LIM domain kinase 2 (Homo sapiens) (UniProt P53671). Description: Selectivity interaction (KinomeScan (DiscoverX)) EUB0001049a LIMK2. To be noted: at 1 µM.
Sequence of LIM domain kinase 2 (Homo sapiens) (P53671 whole entry, looked up, the tested form may be a part): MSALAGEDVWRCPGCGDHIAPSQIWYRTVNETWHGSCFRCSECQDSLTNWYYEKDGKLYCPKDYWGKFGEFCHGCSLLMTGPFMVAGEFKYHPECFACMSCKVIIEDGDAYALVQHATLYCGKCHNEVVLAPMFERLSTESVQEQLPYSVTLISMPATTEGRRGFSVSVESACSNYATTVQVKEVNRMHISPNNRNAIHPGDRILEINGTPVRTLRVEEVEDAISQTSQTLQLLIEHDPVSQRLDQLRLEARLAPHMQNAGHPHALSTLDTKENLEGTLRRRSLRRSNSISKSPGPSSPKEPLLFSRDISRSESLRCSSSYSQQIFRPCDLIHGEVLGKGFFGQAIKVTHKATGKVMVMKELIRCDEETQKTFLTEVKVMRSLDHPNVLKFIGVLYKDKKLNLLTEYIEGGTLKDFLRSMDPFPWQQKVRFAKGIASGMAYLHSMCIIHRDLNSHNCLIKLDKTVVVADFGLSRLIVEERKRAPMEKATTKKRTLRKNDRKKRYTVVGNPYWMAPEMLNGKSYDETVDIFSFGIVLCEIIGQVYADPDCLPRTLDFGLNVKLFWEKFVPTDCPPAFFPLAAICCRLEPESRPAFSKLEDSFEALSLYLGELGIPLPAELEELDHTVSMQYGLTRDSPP
For assay [3], the target named is T1, Serine/threonine-protein kinase Nek3 (Homo sapiens) (UniProt P51956).
T1 sequence (whole entry): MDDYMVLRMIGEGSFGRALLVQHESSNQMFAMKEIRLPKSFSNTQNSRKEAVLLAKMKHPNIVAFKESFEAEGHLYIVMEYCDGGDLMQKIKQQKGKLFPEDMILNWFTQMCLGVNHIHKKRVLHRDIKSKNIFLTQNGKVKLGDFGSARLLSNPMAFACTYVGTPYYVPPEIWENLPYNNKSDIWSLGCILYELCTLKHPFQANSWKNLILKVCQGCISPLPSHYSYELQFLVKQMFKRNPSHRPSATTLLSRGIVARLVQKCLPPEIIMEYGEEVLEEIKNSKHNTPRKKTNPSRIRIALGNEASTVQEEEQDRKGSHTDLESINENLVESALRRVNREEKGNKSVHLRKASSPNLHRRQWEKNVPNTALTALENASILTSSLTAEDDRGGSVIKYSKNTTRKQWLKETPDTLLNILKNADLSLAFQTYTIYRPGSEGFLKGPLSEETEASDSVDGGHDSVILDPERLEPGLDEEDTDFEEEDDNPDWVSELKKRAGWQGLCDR
The assay can be described thus: Selectivity interaction (ProQinase) EUB0000171b NEK3.

Assay [4] relates to Tyrosine-protein kinase ABL1 (Homo sapiens), P00519 [Q252H]. The assay can be described thus: Selectivity interaction (KinomeScan (DiscoverX)) EUB0000092b ABL1. To be noted: at 10 µM.
The target of assay [5] is T2, Mitogen-activated protein kinase 13 (Homo sapiens) (UniProt O15264).
T2 sequence (whole entry): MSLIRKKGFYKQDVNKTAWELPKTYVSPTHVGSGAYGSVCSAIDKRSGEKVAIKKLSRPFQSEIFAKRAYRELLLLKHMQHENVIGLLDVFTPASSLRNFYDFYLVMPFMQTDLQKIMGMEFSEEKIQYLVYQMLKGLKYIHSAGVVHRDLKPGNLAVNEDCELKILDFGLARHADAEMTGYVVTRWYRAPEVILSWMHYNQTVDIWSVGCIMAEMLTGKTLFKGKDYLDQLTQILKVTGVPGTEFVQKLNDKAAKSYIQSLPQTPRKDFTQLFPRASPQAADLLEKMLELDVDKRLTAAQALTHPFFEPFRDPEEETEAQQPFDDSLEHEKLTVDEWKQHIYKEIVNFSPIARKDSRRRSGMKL
The assay can be described thus: Selectivity interaction (Kinase panel (DSF assay)) EUB0001559a MAPK13.

The target in assay [6] is T3, Discoidin domain-containing receptor 2 (Homo sapiens) (UniProt Q16832).
T3 sequence (whole entry): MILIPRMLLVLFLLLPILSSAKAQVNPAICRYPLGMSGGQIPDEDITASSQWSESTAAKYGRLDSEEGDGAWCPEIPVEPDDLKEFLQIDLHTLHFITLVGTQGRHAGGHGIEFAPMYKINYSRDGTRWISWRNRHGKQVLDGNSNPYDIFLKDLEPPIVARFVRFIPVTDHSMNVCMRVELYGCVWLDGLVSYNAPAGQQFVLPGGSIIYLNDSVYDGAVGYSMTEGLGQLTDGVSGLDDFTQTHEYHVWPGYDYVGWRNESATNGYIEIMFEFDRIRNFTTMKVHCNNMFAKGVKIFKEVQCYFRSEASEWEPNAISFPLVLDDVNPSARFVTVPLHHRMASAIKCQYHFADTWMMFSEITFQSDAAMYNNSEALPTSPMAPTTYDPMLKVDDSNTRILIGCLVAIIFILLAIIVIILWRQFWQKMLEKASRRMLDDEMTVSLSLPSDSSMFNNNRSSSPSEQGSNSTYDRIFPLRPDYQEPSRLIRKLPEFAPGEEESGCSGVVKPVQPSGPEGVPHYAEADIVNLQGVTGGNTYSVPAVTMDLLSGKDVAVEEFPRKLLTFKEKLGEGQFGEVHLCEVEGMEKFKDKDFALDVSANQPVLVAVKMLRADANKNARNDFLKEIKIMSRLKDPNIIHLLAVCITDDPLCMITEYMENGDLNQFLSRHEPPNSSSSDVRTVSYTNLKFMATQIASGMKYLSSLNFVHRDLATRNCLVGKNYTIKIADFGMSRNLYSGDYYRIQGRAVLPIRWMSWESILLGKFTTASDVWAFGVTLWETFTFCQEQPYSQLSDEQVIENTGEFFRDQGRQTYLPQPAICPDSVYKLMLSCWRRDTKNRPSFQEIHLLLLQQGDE
The assay can be described thus: Selectivity interaction (Upstate Kinase Profiler service (Millipore)) EUB0000056c DDR2. The settings on record: at 1 µM.

For assay [7], the target named is T4, Peripheral plasma membrane protein CASK (Homo sapiens) (UniProt O14936).
T4 sequence (whole entry): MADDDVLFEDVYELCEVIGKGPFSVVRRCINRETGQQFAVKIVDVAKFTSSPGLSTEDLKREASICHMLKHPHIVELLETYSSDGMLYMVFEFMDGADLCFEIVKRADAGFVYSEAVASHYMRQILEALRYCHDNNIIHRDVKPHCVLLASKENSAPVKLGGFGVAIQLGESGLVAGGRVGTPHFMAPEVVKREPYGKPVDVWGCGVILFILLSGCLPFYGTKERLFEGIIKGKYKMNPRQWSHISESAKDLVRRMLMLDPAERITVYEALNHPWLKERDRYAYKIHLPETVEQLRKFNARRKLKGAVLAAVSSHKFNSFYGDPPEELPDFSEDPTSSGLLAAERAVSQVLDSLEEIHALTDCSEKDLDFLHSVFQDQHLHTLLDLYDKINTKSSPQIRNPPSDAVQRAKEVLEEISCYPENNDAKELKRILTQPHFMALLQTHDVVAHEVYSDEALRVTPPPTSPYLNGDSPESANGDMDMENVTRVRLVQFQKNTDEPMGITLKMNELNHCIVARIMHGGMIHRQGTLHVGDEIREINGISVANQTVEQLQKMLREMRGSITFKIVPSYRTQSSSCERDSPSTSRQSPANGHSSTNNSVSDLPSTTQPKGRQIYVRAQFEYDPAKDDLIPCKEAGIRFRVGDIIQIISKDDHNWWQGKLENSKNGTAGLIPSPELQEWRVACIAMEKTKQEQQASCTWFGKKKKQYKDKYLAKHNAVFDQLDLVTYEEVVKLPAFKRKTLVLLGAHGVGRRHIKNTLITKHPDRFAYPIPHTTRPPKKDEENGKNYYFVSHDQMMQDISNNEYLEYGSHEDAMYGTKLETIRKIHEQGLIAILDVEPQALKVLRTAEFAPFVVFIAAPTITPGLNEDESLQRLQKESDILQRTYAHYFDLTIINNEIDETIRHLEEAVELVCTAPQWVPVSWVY
The assay can be described thus: Selectivity interaction (KinomeScan (DiscoverX)) EUB0000595a CASK. To be noted: at 10 µM.

Sequence of Casein kinase II subunit alpha (P68400 whole entry, looked up, the tested form may be a part): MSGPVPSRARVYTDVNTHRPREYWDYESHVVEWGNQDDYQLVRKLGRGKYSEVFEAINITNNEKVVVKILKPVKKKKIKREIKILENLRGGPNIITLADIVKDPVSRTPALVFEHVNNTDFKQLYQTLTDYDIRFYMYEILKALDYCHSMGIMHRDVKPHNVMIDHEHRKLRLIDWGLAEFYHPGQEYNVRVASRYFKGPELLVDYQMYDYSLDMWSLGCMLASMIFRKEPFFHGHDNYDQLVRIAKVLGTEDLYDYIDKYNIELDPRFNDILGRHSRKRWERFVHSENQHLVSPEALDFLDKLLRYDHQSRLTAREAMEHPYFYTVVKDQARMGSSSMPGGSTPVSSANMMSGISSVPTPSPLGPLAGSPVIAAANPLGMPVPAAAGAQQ

For the compound `CC(C)(O)[C@H](F)CN1Cc2cc(NC(=O)c3cnn4cccnc34)c(N3CCOCC3)cc2C1=O`, the dTM in assay [1] came out at 0.3 K.
`COc1cc(Nc2nc(C)cc(-c3cnn4nc(OC)ccc34)n2)cc(C(F)(F)F)c1` registered a % of control in assay [2] of 92%.
In the case of `C=CC(=O)Nc1cccc(C(=O)Nc2ccc(Nc3cc(-c4[nH]c(SC)nc4C)ccn3)cc2)c1`, the figures for the % of control in assay [3] (at 1 µM) and in assay [3] (at 5 µM) were 73% and 50%, respectively.
In assay [4], `CCC(=O)N1CCN(c2ccc(-n3c(=O)ccc4cnc5ccc(-c6cnc7ccccc7c6)cc5c43)cc2C(F)(F)F)CC1` displayed a % of control of 99%.
As for `CN(C(=O)c1cnn2cccnc12)c1cc2c(cc1N1CCOCC1)C(=O)N(C[C@@H](F)C(C)(C)O)C2`, the dTM in assay [5] worked out at 1.1 K.
With `Cc1ccc(-c2ccc3c(ccc4sc5c(c43)NC[C@@H](C)NC5=O)n2)cn1`, the % of inhibition in assay [6] was -6%.
In assay [7], `COCC(=O)NC/C=C/c1ccc2ncnc(Nc3ccc(Oc4ccc(C)nc4)c(C)c3)c2c1` [CP-724714] returned a % of control of 100%.
